Assay results as given in US20120270819A1, “USE OF COMPOUNDS WITH SGLT-1/SGLT-2 INHIBITOR ACTIVITY FOR PRODUCING MEDICAMENTS FOR TREATMENT OF BONE DISEASE” (SANOFI, priority 2009, published 2012).

Tests used:
Assay type in all cases: in vivo, rat
[1] = tested on: female Sprague-Dawley mature and young adult rats; test: Biomechanical testing: L3, L4 vertebral compression; settings: for AUC (work to failure), percent difference from Vehicle Control / Apparent Strength, percent difference from Vehicle Control / Modulus, percent difference from Vehicle Control / Peak Load, percent difference from Vehicle Control / Stiffness, percent difference from Vehicle Control / Toughness, percent difference from Vehicle Control / Yield Load, percent difference from Vehicle Control / Yield Stress, percent difference from Vehicle Control / AUC (work to failure) / Apparent Strength / Modulus / Peak Load / Stiffness / Toughness / Yield Load / Yield Stress: L3 + L4 vertebral bodies; for AUC (work to failure) / Apparent Strength / Modulus / Peak Load / Stiffness / Toughness / Yield Load / Yield Stress: mean
Procedure: Biomechanical testing was performed using an 858 Mini Bionix Servohydraulic Test System, Model 242.03. All data was collected using TestWorks® version 3.8A for TestStar™ software, version 4.0C.
At necropsy, all specimens were cleaned of excess tissue (not scraped) and individually wrapped in gauze soaked with saline, covered with plastic film and placed in an appropriately labelled plastic bag. Bone samples were retained frozen (ca −20° C.) until subjected to the following biomechanical evaluations:
For compression testing, the vertebral body of the vertebrae was isolated by removing the vertebral arch and removing both inter-vertebral discs. The section obtained had two parallel cut surfaces and the trabecular bone exposed.
The L3 and L4 vertebral body were tested in compression to failure. The loading rate was set at 20 mm/min. Load and displacement data were collected and apparent strength and modulus were calculated using the peak load, stiffness, individual vertebral body height and cross sectional area from the pQCT scans. The work to failure was determined from the area under the curve (AUC) and toughness was calculated. Yield load was originally derived using a 0.2% off-set however a 0.1% off-set was considered more appropriate and yield stress was calculated. All data derived from the 0.2% off-set yield load was kept with the study file but not reported.

[2] = tested on: female Sprague-Dawley mature and young adult rats; test: Ex vivo pQCT of L3 and L4 lumbar vertebrae; settings: L3 + L4 vertebral bodies; for pQCT Total Area / pQCT Total BMC / pQCT Total BMD / pQCT Trabecular Area / pQCT Trabecular BMC / pQCT Trabecular BMD: mean
Procedure: Peripheral QCT scans were performed ex vivo using an XCT Research SA or SA+ bone scanner with software version 5.50D. Scans were obtained for the right femur, L3 and L4 lumbar vertebra for all animals euthanized at the end of the treatment period as well as two found dead animals. These two animals were scanned twice due to technical oversight, however only the first scans obtained were reported and the second scans were kept with the study file, this had no impact on the study as both scans were considered equivalent.
For the vertebrae, the scans were obtained at the midpoint. The L3 vertebrae from four animal and L4 vertebrae from four animals were damaged at trimming and L4 vertebrae from one animal was lost during trimming, consequently, no scans were obtained on these vertebrae. Additional slices were obtained as considered appropriate to ensure the optimal scans and data acquisition.
All analyses were performed using the LOOP option of the analysis software. All other data generated as a result of the LOOP option were retained with the raw data but not reported. The most appropriate analysis mode for the femur and the lumbar vertebrae was used and documented in the raw data and the analysis details are presented in Table 6. All scan analysis data was retained and re-analyses documented.

[3] = tested on: female Sprague-Dawley mature and young adult rats; test: Animal study of bone quality, daily oral gavage for a minimum of 28 days (overall findings, histopathology)
Procedure: The following were evaluated: clinical signs (at least weekly), body weight (weekly), food consumption (weekly), hormones (Days 13 and 27), serum and urinary biochemical markers of bone turnover (Days 13 and 27), serum chemistry (at necropsy), bone densitometry by dual energy X-ray absorptiometry (DXA) and peripheral quantitative computed tomography (pQCT) (Week 2 and 4, as well as ex vivo), macroscopic observations at necropsy, organ weights, histopathology, biomechanical strength testing and femoral length measurements.

COc1ccc(Cc2c(OC3OC(CO)C(F)C(O)C3O)n[nH]c2C(F)(F)F)cc1 (stereo not shown) [Example 5 of formula II]
Strength parameters at the lumbar spine ([1]; 50 mg/kg/day): positively affected
AUC (work to failure), percent difference from Vehicle Control ([1]; mature adults, 10 mg/kg/day): 3.5%
Apparent Strength, percent difference from Vehicle Control ([1]; mature adults, 10 mg/kg/day): 3.4%
Modulus, percent difference from Vehicle Control ([1]; mature adults, 10 mg/kg/day): −2.0%
Peak Load, percent difference from Vehicle Control ([1]; mature adults, 10 mg/kg/day): 6.0%
Stiffness, percent difference from Vehicle Control ([1]; mature adults, 10 mg/kg/day): 0.9%
Toughness, percent difference from Vehicle Control ([1]; mature adults, 10 mg/kg/day): 2.0%
Yield Load, percent difference from Vehicle Control ([1]; mature adults, 10 mg/kg/day): 4.3%
Yield Stress, percent difference from Vehicle Control ([1]; mature adults, 10 mg/kg/day): 2.1%
AUC (work to failure) ([1]; mature adults, 10 mg/kg/day): 21.5 N-mm
Apparent Strength ([1]; mature adults, 10 mg/kg/day): 48.3 MPa
Modulus ([1]; mature adults, 10 mg/kg/day): 2102.6 MPa
Peak Load ([1]; mature adults, 10 mg/kg/day): 375.5 N
Stiffness ([1]; mature adults, 10 mg/kg/day): 5308.6 N/mm
Toughness ([1]; mature adults, 10 mg/kg/day): 0.9 MPa
Yield Load ([1]; mature adults, 10 mg/kg/day): 329.3 N
Yield Stress ([1]; mature adults, 10 mg/kg/day): 42.5 MPa
AUC (work to failure), percent difference from Vehicle Control ([1]; mature adults, 50 mg/kg/day): 22.1%
Apparent Strength, percent difference from Vehicle Control ([1]; mature adults, 50 mg/kg/day): 14.1%
Modulus, percent difference from Vehicle Control ([1]; mature adults, 50 mg/kg/day): 2.5%
Peak Load, percent difference from Vehicle Control ([1]; mature adults, 50 mg/kg/day): 21.6%
Stiffness, percent difference from Vehicle Control ([1]; mature adults, 50 mg/kg/day): 17.8%
Toughness, percent difference from Vehicle Control ([1]; mature adults, 50 mg/kg/day): 20.6%
Yield Load, percent difference from Vehicle Control ([1]; mature adults, 50 mg/kg/day): 16.6%
Yield Stress, percent difference from Vehicle Control ([1]; mature adults, 50 mg/kg/day): 9.2%
AUC (work to failure) ([1]; mature adults, 50 mg/kg/day): 25.4 N-mm
Apparent Strength ([1]; mature adults, 50 mg/kg/day): 53.3 MPa
Modulus ([1]; mature adults, 50 mg/kg/day): 2197.6 MPa
Peak Load ([1]; mature adults, 50 mg/kg/day): 430.6 N
Stiffness ([1]; mature adults, 50 mg/kg/day): 6194.6 N/mm
Toughness ([1]; mature adults, 50 mg/kg/day): 1.1 MPa
Yield Load ([1]; mature adults, 50 mg/kg/day): 368.0 N
Yield Stress ([1]; mature adults, 50 mg/kg/day): 45.5 MPa
AUC (work to failure), percent difference from Vehicle Control ([1]; young adults, 10 mg/kg/day): −9.8%
Apparent Strength, percent difference from Vehicle Control ([1]; young adults, 10 mg/kg/day): 3.5%
Modulus, percent difference from Vehicle Control ([1]; young adults, 10 mg/kg/day): 19.2%
Peak Load, percent difference from Vehicle Control ([1]; young adults, 10 mg/kg/day): 5.2%
Stiffness, percent difference from Vehicle Control ([1]; young adults, 10 mg/kg/day): 12.0%
Toughness, percent difference from Vehicle Control ([1]; young adults, 10 mg/kg/day): −19.6%
Yield Load, percent difference from Vehicle Control ([1]; young adults, 10 mg/kg/day): 8.3%
Yield Stress, percent difference from Vehicle Control ([1]; young adults, 10 mg/kg/day): 6.1%
AUC (work to failure) ([1]; young adults, 10 mg/kg/day): 14.4 N-mm
Apparent Strength ([1]; young adults, 10 mg/kg/day): 34.4 MPa
Modulus ([1]; young adults, 10 mg/kg/day): 1559.1 MPa
Peak Load ([1]; young adults, 10 mg/kg/day): 255.9 N
Stiffness ([1]; young adults, 10 mg/kg/day): 4009.8 N/mm
Toughness ([1]; young adults, 10 mg/kg/day): 0.7 MPa
Yield Load ([1]; young adults, 10 mg/kg/day): 222.5 N
Yield Stress ([1]; young adults, 10 mg/kg/day): 29.9 MPa
AUC (work to failure), percent difference from Vehicle Control ([1]; young adults, 50 mg/kg/day): 2.1%
Apparent Strength, percent difference from Vehicle Control ([1]; young adults, 50 mg/kg/day): 16.4%
Modulus, percent difference from Vehicle Control ([1]; young adults, 50 mg/kg/day): 23.3%
Peak Load, percent difference from Vehicle Control ([1]; young adults, 50 mg/kg/day): 10.2%
Stiffness, percent difference from Vehicle Control ([1]; young adults, 50 mg/kg/day): 10.3%
Toughness, percent difference from Vehicle Control ([1]; young adults, 50 mg/kg/day): 1.5%
Yield Load, percent difference from Vehicle Control ([1]; young adults, 50 mg/kg/day): 9.7%
Yield Stress, percent difference from Vehicle Control ([1]; young adults, 50 mg/kg/day): 15.8%
AUC (work to failure) ([1]; young adults, 50 mg/kg/day): 16.3 N-mm
Apparent Strength ([1]; young adults, 50 mg/kg/day): 38.7 MPa
Modulus ([1]; young adults, 50 mg/kg/day): 1613.3 MPa
Peak Load ([1]; young adults, 50 mg/kg/day): 268.0 N
Stiffness ([1]; young adults, 50 mg/kg/day): 3951.0 N/mm
Toughness ([1]; young adults, 50 mg/kg/day): 0.9 MPa
Yield Load ([1]; young adults, 50 mg/kg/day): 225.4 N
Yield Stress ([1]; young adults, 50 mg/kg/day): 32.7 MPa
pQCT Total Area, percent difference from Vehicle Control ([2]; mature adults, 10 mg/kg/day): 2.3%
pQCT Total BMC, percent difference from Vehicle Control ([2]; mature adults, 10 mg/kg/day): 5.9%
pQCT Total BMD, percent difference from Vehicle Control ([2]; mature adults, 10 mg/kg/day): 3.6%
pQCT Trabecular Area, percent difference from Vehicle Control ([2]; mature adults, 10 mg/kg/day): 2.4%
pQCT Trabecular BMC, percent difference from Vehicle Control ([2]; mature adults, 10 mg/kg/day): 9.0%
pQCT Trabecular BMD, percent difference from Vehicle Control ([2]; mature adults, 10 mg/kg/day): 6.9%
pQCT Total Area ([2]; mature adults, 10 mg/kg/day): 7.7 mm^2
pQCT Total BMC ([2]; mature adults, 10 mg/kg/day): 5.6 mg/mm
pQCT Total BMD ([2]; mature adults, 10 mg/kg/day): 727.9 mg/cm^3
pQCT Trabecular Area ([2]; mature adults, 10 mg/kg/day): 3.5 mm^2
pQCT Trabecular BMC ([2]; mature adults, 10 mg/kg/day): 1.7 mg/mm
pQCT Trabecular BMD ([2]; mature adults, 10 mg/kg/day): 486.9 mg/cm^3
pQCT Total Area, percent difference from Vehicle Control ([2]; mature adults, 50 mg/kg/day): 7.4%
pQCT Total BMC, percent difference from Vehicle Control ([2]; mature adults, 50 mg/kg/day): 12.4%
pQCT Total BMD, percent difference from Vehicle Control ([2]; mature adults, 50 mg/kg/day): 4.5%
pQCT Trabecular Area, percent difference from Vehicle Control ([2]; mature adults, 50 mg/kg/day): 7.5%
pQCT Trabecular BMC, percent difference from Vehicle Control ([2]; mature adults, 50 mg/kg/day): 15.1%
pQCT Trabecular BMD, percent difference from Vehicle Control ([2]; mature adults, 50 mg/kg/day): 6.8%
pQCT Total Area ([2]; mature adults, 50 mg/kg/day): 8.1 mm^2
pQCT Total BMC ([2]; mature adults, 50 mg/kg/day): 5.9 mg/mm
pQCT Total BMD ([2]; mature adults, 50 mg/kg/day): 734.0 mg/cm^3
pQCT Trabecular Area ([2]; mature adults, 50 mg/kg/day): 3.6 mm^2
pQCT Trabecular BMC ([2]; mature adults, 50 mg/kg/day): 1.8 mg/mm
pQCT Trabecular BMD ([2]; mature adults, 50 mg/kg/day): 486.4 mg/cm^3
pQCT Total Area, percent difference from Vehicle Control ([2]; young adults, 10 mg/kg/day): 1.7%
pQCT Total BMC, percent difference from Vehicle Control ([2]; young adults, 10 mg/kg/day): 8.5%
pQCT Total BMD, percent difference from Vehicle Control ([2]; young adults, 10 mg/kg/day): 6.9%
pQCT Trabecular Area, percent difference from Vehicle Control ([2]; young adults, 10 mg/kg/day): 1.6%
pQCT Trabecular BMC, percent difference from Vehicle Control ([2]; young adults, 10 mg/kg/day): 10.5%
pQCT Trabecular BMD, percent difference from Vehicle Control ([2]; young adults, 10 mg/kg/day): 8.9%
pQCT Total Area ([2]; young adults, 10 mg/kg/day): 7.4 mm^2
pQCT Total BMC ([2]; young adults, 10 mg/kg/day): 4.9 mg/mm
pQCT Total BMD ([2]; young adults, 10 mg/kg/day): 659.9 mg/cm^3
pQCT Trabecular Area ([2]; young adults, 10 mg/kg/day): 3.4 mm^2
pQCT Trabecular BMC ([2]; young adults, 10 mg/kg/day): 1.6 mg/mm
pQCT Trabecular BMD ([2]; young adults, 10 mg/kg/day): 461.6 mg/cm^3
pQCT Total Area, percent difference from Vehicle Control ([2]; young adults, 50 mg/kg/day): −5.1%
pQCT Total BMC, percent difference from Vehicle Control ([2]; young adults, 50 mg/kg/day): 2.7%
pQCT Total BMD, percent difference from Vehicle Control ([2]; young adults, 50 mg/kg/day): 8.6%
pQCT Trabecular Area, percent difference from Vehicle Control ([2]; young adults, 50 mg/kg/day): −5.0%
pQCT Trabecular BMC, percent difference from Vehicle Control ([2]; young adults, 50 mg/kg/day): 2.7%
pQCT Trabecular BMD, percent difference from Vehicle Control ([2]; young adults, 50 mg/kg/day): 8.9%
pQCT Total Area ([2]; young adults, 50 mg/kg/day): 6.9 mm^2
pQCT Total BMC ([2]; young adults, 50 mg/kg/day): 4.7 mg/mm
pQCT Total BMD ([2]; young adults, 50 mg/kg/day): 670.6 mg/cm^3
pQCT Trabecular Area ([2]; young adults, 50 mg/kg/day): 3.1 mm^2
pQCT Trabecular BMC ([2]; young adults, 50 mg/kg/day): 1.4 mg/mm
pQCT Trabecular BMD ([2]; young adults, 50 mg/kg/day): 461.9 mg/cm^3
effects on bone mass and bone strength associated parameters ([3]; both dose levels (10, 50 mg/kg/day), both rat populations): positive effects
trabecular bone noted histopathologically ([3]; young only): increase in trabecular bone
